Reference: US9624239B2, “Protein kinase inhibitors” (Pharmascience Inc., priority 2011, dated 2017)

How the values were obtained:
[1] = target: T1, histidine tagged recombinant Human Lymphocyte-Specific Protein Tyrosine Kinase (Lck) (Homo sapiens, UniProt P06239); experiment: Lck kinase inhibition assay (fluorescence polarization, KinEASE FP Fluorescein Green); format: biochemical; conditions: 10 μM ATP, 250 μM substrate, 60 minutes, room temperature; Ki from IC50 by Cheng-Prusoff
T1 construct: histidine tag
T1 sequence (P06239 whole entry): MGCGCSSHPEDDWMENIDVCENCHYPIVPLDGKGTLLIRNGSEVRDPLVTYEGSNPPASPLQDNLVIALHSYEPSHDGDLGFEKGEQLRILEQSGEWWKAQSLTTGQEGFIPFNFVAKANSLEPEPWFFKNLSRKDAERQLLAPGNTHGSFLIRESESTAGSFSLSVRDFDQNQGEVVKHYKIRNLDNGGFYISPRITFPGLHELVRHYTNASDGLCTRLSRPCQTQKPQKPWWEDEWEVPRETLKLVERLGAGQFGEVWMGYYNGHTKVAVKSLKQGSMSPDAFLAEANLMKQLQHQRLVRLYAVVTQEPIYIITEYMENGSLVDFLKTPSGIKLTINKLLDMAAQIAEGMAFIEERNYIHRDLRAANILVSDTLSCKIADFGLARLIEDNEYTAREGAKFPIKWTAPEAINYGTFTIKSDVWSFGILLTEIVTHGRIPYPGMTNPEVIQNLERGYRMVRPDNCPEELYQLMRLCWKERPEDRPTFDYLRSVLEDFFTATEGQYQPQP
Experimental: (§1) Kinase Binding Btk and Lck Kinase Inhibition Assay
(§2) Fluorescence polarization-based kinase assays were performed in 384 well-plate format using histidine tagged recombinant human full-length Bruton Agammaglobulinemia Tyrosine Kinase (Btk) or histidine tagged recombinant Human Lymphocyte-Specific Protein Tyrosine Kinase (Lck) and a modified protocol of the KinEASE™ FP Fluorescein Green Assay supplied from Millipore. Kinase reaction were performed at room temperature for 60 minutes in presence of 250 μM substrate, 10 μM ATP and variable test article concentrations. The reaction was stopped with EDTA/kinease detection reagents and the polarization measured on a Tecan 500 instrument. From the dose-response curve obtained, the IC50 was calculated using Graph Pad Prisms® using a non-linear fit curve. The Km for ATP on each enzyme was experimentally determined and the Ki values calculated using the Cheng-Prusoff equation (see: Cheng Y, Prusoff W H. (1973) Relationship between the inhibition constant (K1) and the concentration of inhibitor which causes 50 percent inhibition (I50) of an enzymatic reaction”. Biochem Pharmacol 22 (23): 3099-108).
(§3) ki values are reported in Tables 2 and 3: • a—Less than 100 nM; b—less than 1000 nM; c—more than 1000 nM

[2] = target: T2, histidine tagged recombinant human full-length Bruton Agammaglobulinemia Tyrosine Kinase (Btk) (Homo sapiens, UniProt Q06187); experiment: Btk kinase inhibition assay (fluorescence polarization, KinEASE FP Fluorescein Green); format: biochemical; conditions: 10 μM ATP, 250 μM substrate, 60 minutes, room temperature; Ki from IC50 by Cheng-Prusoff; read-out: ki50 (nM), Inhibition of Btk
T2 construct: recombinant human full-length Bruton Agammaglobulinemia Tyrosine Kinase (Btk); histidine tag
T2 sequence (Q06187 whole entry): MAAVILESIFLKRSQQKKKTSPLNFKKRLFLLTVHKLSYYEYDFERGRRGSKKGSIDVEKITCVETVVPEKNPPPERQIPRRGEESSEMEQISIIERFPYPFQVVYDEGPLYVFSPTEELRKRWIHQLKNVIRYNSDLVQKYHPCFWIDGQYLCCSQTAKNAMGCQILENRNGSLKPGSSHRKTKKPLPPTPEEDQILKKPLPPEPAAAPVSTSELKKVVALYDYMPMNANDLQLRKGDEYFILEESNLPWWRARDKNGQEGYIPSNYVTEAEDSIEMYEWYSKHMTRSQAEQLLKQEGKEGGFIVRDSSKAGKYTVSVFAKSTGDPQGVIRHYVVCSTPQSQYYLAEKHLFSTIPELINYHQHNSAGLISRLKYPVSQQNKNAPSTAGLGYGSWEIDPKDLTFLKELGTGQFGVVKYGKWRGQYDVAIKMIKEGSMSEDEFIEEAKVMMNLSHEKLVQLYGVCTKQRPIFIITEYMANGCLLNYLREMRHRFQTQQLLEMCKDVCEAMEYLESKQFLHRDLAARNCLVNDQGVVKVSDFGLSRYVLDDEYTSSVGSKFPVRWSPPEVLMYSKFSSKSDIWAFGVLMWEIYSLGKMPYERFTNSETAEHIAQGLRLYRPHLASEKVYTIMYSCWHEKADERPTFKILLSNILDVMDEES
Experimental: as §1, §2, §3

[3] = system: mouse splenocytes; experiment: Splenic cell proliferation assay (anti-IgM stimulated B cell proliferation, Cell Titer-Glo); format: cell-based; conditions: Splenocyte; CD1 mouse splenocytes, 1 h pre-treatment, 2.5 ug/ml anti-IgM F(ab')2 for 72 h; read-out: EC50 (nM), Inhibition of splenic cell proliferation
Experimental: Splenic Cell Proliferation Assay
Splenocytes were obtained from 6 week old male CD1 mice (Charles River Laboratories Inc.). Mouse spleens were manually disrupted in PBS and filtered using a 70 μm cell strainer followed by ammonium chloride red blood cell lysis. Cells were washed, resuspended in Splenocyte Medium (HyClone RPMI supplemented with 10% heat-inactivated FBS, 0.5× non-essential amino acids, 10 mM HEPES, 50 uM beta mercaptoethanol) and incubated at 37° C., 5% CO2 for 2 h to remove adherent cells. Suspension cells were seeded in 96 well plates at 50,000 cells per well and incubated at 37° C., 5% CO2 for 1 h. Splenocytes were pre-treated in triplicate with 10,000 nM curves of Formula 1 compounds for 1 h, followed by stimulation of B cell proliferation with 2.5 ug/ml anti-IgM F(ab′)2 (Jackson ImmunoResearch) for 72 h. Cell proliferation was measured by Cell Titer-Glo Luminescent Assay (Promega). EC50 values (50% proliferation in the presence of compound as compared to vehicle treated controls) were calculated from dose response compound curves using GraphPad Prism Software.
EC50 values are reported in Table 4: • a—Less than 100 nM; b—less than 1000 nM; c—more than 1000 nM

| Compound | Ki [1] | Ki [2] | EC50 [3] |
| --- | --- | --- | --- |
| CC1OCc2c1c1ncnc(N)c1n2-c1ccc(Oc2cccc(F)c2)cc1 (stereo not drawn) [Compound 35] | < 1000 nM | < 1000 nM | > 1000 nM |
| CC1OCc2c1c1ncnc(N)c1n2-c1ccc(Oc2ccccc2C(N)=O)cc1 (stereo not drawn) [Compound 60] | < 1000 nM | > 1000 nM | > 1000 nM |
| CC1OCc2c1c1ncnc(N)c1n2-c1ccc(Oc2ccccc2)cc1 (stereo not drawn) [Compound 20] | < 100 nM | < 100 nM | 100 to 1000 nM |
| Nc1ncnc2c3c(n(-c4ccc(Oc5ccccc5)cc4)c12)COC3CCCOc1ccccc1 (stereo not drawn) [Compound 36] | < 1000 nM | > 1000 nM | > 1000 nM |
| CC1OCc2c1c1ncnc(N)c1n2-c1ccc(Oc2cccc(OCc3ccccc3)c2)cc1 (stereo not drawn) [Compound 43] | < 100 nM | < 100 nM | 100 to 1000 nM |
| CC1OCc2c1c1ncnc(N)c1n2-c1ccc(Oc2cccc(C(F)(F)F)c2)cc1 (stereo not drawn) [Compound 29] | < 1000 nM | < 1000 nM | 100 to 1000 nM |
| Nc1ncnc2c3c(n(-c4ccc(Oc5ccc(Cl)cc5)cc4)c12)CCC3 [Compound 4] | < 1000 nM | < 1000 nM | > 1000 nM |
| CC1OCc2c1c1ncnc(N)c1n2-c1ccc(Oc2cccc(O)c2)cc1 (stereo not drawn) [Compound 44] | < 100 nM | < 100 nM | > 1000 nM |
| CC1OCc2c1c1ncnc(N)c1n2-c1ccc(Oc2cccc(OCC3CCCCC3)c2)cc1 (stereo not drawn) [Compound 56] | < 100 nM | < 100 nM | > 1000 nM |
| Nc1ncnc2c3c(n(-c4ccc(Oc5ccccc5)cc4)c12)COC3CCCO (stereo not drawn) [Compound 27] | < 100 nM | < 1000 nM | > 1000 nM |
| CC1OCc2c1c1ncnc(N)c1n2-c1ccc(Oc2cccc(OCCOc3ccc(Cl)cc3)c2)cc1 (stereo not drawn) [Compound 50] | < 100 nM | < 100 nM | > 1000 nM |
| CC1OCc2c1c1ncnc(N)c1n2-c1ccc(Oc2ccccc2)c(Cl)c1 (stereo not drawn) [Compound 39] | < 100 nM | < 1000 nM | > 1000 nM |
| Nc1ncnc2c3c(n(-c4ccc(Oc5ccccc5)cc4)c12)CNC3 [Compound 7] | < 1000 nM | > 1000 nM | > 1000 nM |
| CC1OCc2c1c1ncnc(N)c1n2-c1ccc(Oc2cccc(C#N)c2)cc1 (stereo not drawn) [Compound 37] | > 1000 nM | > 1000 nM | > 1000 nM |
| Nc1ncnc2c3c(n(-c4ccc(Oc5ccccc5)cc4)c12)CCC3 [Compound 1] | < 100 nM | < 1000 nM | > 1000 nM |
| CC1OCc2c1c1ncnc(N)c1n2-c1ccc(Oc2ccccc2F)cc1 (stereo not drawn) [Compound 34] | < 100 nM | < 100 nM | > 1000 nM |
| Nc1ncnc2c3c(n(-c4ccc(Oc5ccccc5)cc4)c12)COC3 [Compound 21] | < 100 nM | < 1000 nM | > 1000 nM |
| CC1OCc2c1c1ncnc(N)c1n2-c1ccc(Oc2cccc(OCC#N)c2)cc1 (stereo not drawn) [Compound 46] | < 100 nM | < 100 nM | 100 to 1000 nM |
| CC1OCc2c1c1ncnc(N)c1n2-c1ccc(Oc2cccc(OCc3cccnc3)c2)cc1 (stereo not drawn) [Compound 53] | < 100 nM | < 100 nM | 100 to 1000 nM |
| Nc1ncnc2c3c(n(-c4ccc(Oc5ccc(F)cc5)cc4)c12)CCC3 [Compound 2] | > 1000 nM | > 1000 nM | > 1000 nM |
| COc1cc(-n2c3c(c4ncnc(N)c42)CCC3)ccc1Oc1ccccc1 [Compound 23] | < 100 nM | < 1000 nM | > 1000 nM |

The next lines start with results.

| Ki [1] | Ki [2] | Compound | EC50 [3] |
| --- | --- | --- | --- |
| < 1000 nM | < 1000 nM | COc1ccccc1Oc1ccc(-n2c3c(c4ncnc(N)c42)C(C)OC3)cc1 (stereo not drawn) [Compound 28] | > 1000 nM |
| < 100 nM | > 1000 nM | Nc1ncnc2c3c(n(-c4ccc(Oc5cccc(O)c5)cc4)c12)CCC3 [Compound 61] | > 1000 nM |
| < 1000 nM | < 1000 nM | Nc1ncnc2c3c(n(-c4ccc(Oc5ccc(Br)cc5)cc4)c12)CCC3 [Compound 3] | > 1000 nM |
| < 1000 nM | > 1000 nM | CC1OCc2c1c1ncnc(N)c1n2-c1ccc(Oc2ccc(F)cc2)cc1 (stereo not drawn) [Compound 42] | > 1000 nM |
| < 100 nM | < 100 nM | CC1OCc2c1c1ncnc(N)c1n2-c1ccc(Oc2cccc(OCc3ccc(F)cc3)c2)cc1 (stereo not drawn) [Compound 49] | 100 to 1000 nM |
| < 1000 nM | > 1000 nM | Nc1ncnc2c3c(n(-c4ccc(Oc5ccccc5)cc4)c12)COC3CCCOCc1ccccc1 (stereo not drawn) [Compound 26] | > 1000 nM |
| < 1000 nM | < 1000 nM | CC1OCc2c1c1ncnc(N)c1n2-c1ccc(Oc2ccccc2C(F)(F)F)cc1 (stereo not drawn) [Compound 32] | 100 to 1000 nM |
| < 1000 nM | < 100 nM | Nc1ncnc2c3c(n(-c4ccc(Oc5ccccc5)cc4)c12)COC3c1ccccc1 (stereo not drawn) [Compound 30] | > 1000 nM |
| < 100 nM | < 100 nM | CC1OCc2c1c1ncnc(N)c1n2-c1ccc(Oc2cccc(OCc3ccc(C(F)(F)F)cc3)c2)cc1 (stereo not drawn) [Compound 57] | > 1000 nM |
| < 100 nM | < 100 nM | CC1OCc2c1c1ncnc(N)c1n2-c1ccc(Oc2cccc(OCc3ccncc3)c2)cc1 (stereo not drawn) [Compound 54] | > 1000 nM |
| < 100 nM | < 100 nM | COc1cccc(Oc2ccc(-n3c4c(c5ncnc(N)c53)C(C)OC4)cc2)c1 (stereo not drawn) [Compound 25] | 100 to 1000 nM |
| < 100 nM | < 100 nM | CCOc1cccc(Oc2ccc(-n3c4c(c5ncnc(N)c53)C(C)OC4)cc2)c1 (stereo not drawn) [Compound 41] | 100 to 1000 nM |
| < 100 nM | < 1000 nM | CC1OCc2c1c1ncnc(N)c1n2-c1ccc(Oc2ccccc2C#N)cc1 (stereo not drawn) [Compound 58] | 100 to 1000 nM |
| < 100 nM | < 1000 nM | CCC1OCc2c1c1ncnc(N)c1n2-c1ccc(Oc2ccccc2)cc1 (stereo not drawn) [Compound 24] | 100 to 1000 nM |
| < 100 nM | < 1000 nM | CC1OCc2c1c1ncnc(N)c1n2-c1ccc(Oc2ccccc2)c(F)c1 (stereo not drawn) [Compound 40] | 100 to 1000 nM |
